The data set is described as follows: Human HepG2 cell viability assay in 384 well format. The class given is toxicity, cell-based. Details: dose 125 nL, time 70.5 hour; cytotoxicity at 70.5 h: concentration not given beside the values. As to conditions: HepG2 cells, read-out: Inhibition.

In the case of `CCC(CC)C(=O)N1CCN(Cc2nc3ccccc3c(=O)[nH]2)CC1`, the cytotoxicity at 70.5 h was -14.5%. The result for `CC(=O)N[C@@H]1C[C@H](c2ccc(OCCO)cc2)OC2(CCOCC2)C1` reads 7.41%; that for `Cc1cc(O)nc(C2CN(CCC(F)(F)F)CCO2)n1` (stereo unspecified), -7.38%. For the molecule `Cc1cccnc1C(=O)N1CCCC(Cc2cncc3ccccc23)C1` (stereo unspecified), the cytotoxicity at 70.5 h is -3.08%. Consider `Cn1cncc1CN1CCCC1c1cncc(Oc2ccc(F)cc2)n1` (stereo unspecified), for which the cytotoxicity at 70.5 h was -10.5%.

Take `Cc1noc(C)c1-c1ccnc(C2CCN(C3CCOCC3)CC2)c1`: the cytotoxicity at 70.5 h came out at 0.77%.

With `C[C@]1(O)CCN(Cc2ncccc2F)C[C@@H]1Oc1ccccc1`, the cytotoxicity at 70.5 h was -6.62%. As for `C[C@]1(O)CN(Cc2ncccc2F)CC[C@@H]1Oc1ccccc1`, the cytotoxicity at 70.5 h was -7.87%. As to `CNc1cc(C2CN(Cc3csc(C)n3)CCO2)nc(C)n1` (stereo unspecified), the cytotoxicity at 70.5 h was 9.88%.

Take `CC1(C(=O)N2CCOCC2)CN(C2CCCCC2)CCO1` (stereo unspecified): the cytotoxicity at 70.5 h came to 0.715%. Consider `CCCn1nccc1-c1cc(C2CCN(C(C)=O)CC2)ccn1`, for which the cytotoxicity at 70.5 h is -8.34%. With `Cc1nccc(C2CCCCN2Cc2ccc(F)cc2)n1` (stereo unspecified), the cytotoxicity at 70.5 h turned out to be 10.1%. As for `Cc1c[nH]nc1C1CCCN(C(=O)Cn2cccn2)C1` (stereo unspecified), the cytotoxicity at 70.5 h is -5.23%. Regarding `Cc1noc(C)c1-c1ccnc(C2CCNCC2)c1`, the cytotoxicity at 70.5 h was -2.34%.

For `c1ccc(O[C@H]2C[C@@H]3CN(Cc4cnccn4)C[C@@H]3C2)cc1`, the cytotoxicity at 70.5 h was -0.72%. `Cc1noc(C)c1-c1cccc(C2CCNCC2)n1`: the cytotoxicity at 70.5 h came to 7.5%. In the case of `Cc1cnc(C2(C)CCN(Cc3csc(C)n3)CC2)s1`, the cytotoxicity at 70.5 h was -4.14%.

For the molecule `Cc1cccc(N2CCOC(C(=O)O)C2)c1` (stereo unspecified), the cytotoxicity at 70.5 h is -6.1%. As to `O=C(CC1CCCC1)N1CCC(c2cc3ncccc3c(O)n2)CC1`, the cytotoxicity at 70.5 h is -9.11%. With `Cc1nnc(Nc2cccc(C3CCCN(Cc4ncc[nH]4)C3)n2)s1` (stereo unspecified), the cytotoxicity at 70.5 h came to 14%. Regarding `CN(C)c1cc(C2CCCN(S(=O)(=O)c3cn(C)cn3)C2)ccn1` (stereo unspecified), the cytotoxicity at 70.5 h is -4.64%. On to `NC(=O)CN1CCCC1c1cncc(Oc2ccc(Cl)cc2)n1` (stereo unspecified), for which the cytotoxicity at 70.5 h is -4.42%. In the case of `Cc1cc(C)nc(C2CCN(C(=O)CCn3ncc4ccccc43)C2)n1` (stereo unspecified), the cytotoxicity at 70.5 h was found to be 2.78%. With `Cn1nccc1-c1cc(C2CCN(S(C)(=O)=O)CC2)ccn1`, the cytotoxicity at 70.5 h was -7.68%. In the case of `COc1ccccc1Oc1cncc(C2CCCN(C)C2)n1` (stereo unspecified), the cytotoxicity at 70.5 h is -5.97%. As for `CN(C)c1cc(C2CCCN(C(=O)Cn3cc(Cl)cn3)C2)ccn1` (stereo unspecified), the cytotoxicity at 70.5 h was -4.03%. In the case of `COCC(=O)N1CCC(c2csc(NC(C)=O)n2)CC1`, the cytotoxicity at 70.5 h was -8.01%. The result for `CC(=O)Nc1nc(C2CN(C(=O)C3CCC3)C2)cs1` reads -7.1%; that for `CC1CCC(NCCNC(=O)c2cccs2)CC1` (stereo unspecified), -7.09%; that for `Cc1cc(O)nc(C2CN(CCO)CCO2)n1` (stereo unspecified), 8.3%. Take `O=C(c1cc[nH]n1)N1CCCC1c1cc(Nc2ccccn2)n[nH]1` (stereo unspecified): the cytotoxicity at 70.5 h is -11.2%.

`CN(C)[C@@H]1CN(C(=O)c2ccc3ccccc3n2)C[C@H]1O`: the cytotoxicity at 70.5 h is -7.72%. As to `Cc1cccc(Nc2cccc(C3CCCN(Cc4ncc[nH]4)C3)n2)n1` (stereo unspecified), the cytotoxicity at 70.5 h was -8.27%.

As to `CNc1cc(C2CN(Cc3coc(C)n3)CCO2)nc(C)n1` (stereo unspecified), the cytotoxicity at 70.5 h was -8.75%.

With `O=C(CCN1CCc2ccccc21)N1CC(C(=O)N2CCOCC2)C1`, the cytotoxicity at 70.5 h is -5.25%. `O=S(=O)(N1CCOCC1)N1CCCC1Cn1cccn1` (stereo unspecified): the cytotoxicity at 70.5 h was -11.1%. On to `O=C(c1cncs1)N1CCCC1c1ccn[nH]1` (stereo unspecified), for which the cytotoxicity at 70.5 h is -3.39%. The result for `Cc1noc(C)c1-c1ccc(C2CCCN2C(=O)c2cccnn2)nc1` (stereo unspecified) reads 19.1%; that for `Cc1ncncc1C(=O)N1CCOC(C)(C(=O)NC2CCCC2)C1` (stereo unspecified), -1.33%. Turning to `Cc1cccc(CC2CCCN(C(=O)Cc3csc(C)n3)C2)n1` (stereo unspecified), the cytotoxicity at 70.5 h was -10.5%. The result for `COCC(=O)N1CC(c2ccnc(Nc3ccc(C)cn3)n2)C1` reads -10.9%; that for `Cc1ccc(C2CN(C(=O)c3ccn(C)c(=O)c3)CCO2)nc1` (stereo unspecified), -7.64%.

Take `Cc1cc(N2CCC(c3n[nH]c4nccnc34)C2)ncn1` (stereo unspecified): the cytotoxicity at 70.5 h is 19.2%. As for `Cc1ccc(Nc2nccc(C3CCN(CC(N)=O)C3)n2)nc1` (stereo unspecified), the cytotoxicity at 70.5 h is -8.32%. The result for `CS(=O)(=O)c1cn[nH]c1C1CCCCN1C(=O)c1cnccn1` (stereo unspecified) reads -5.18%; that for `Cn1ccc(C(=O)N2CCCC2c2[nH]ncc2C(N)=O)n1` (stereo unspecified), -4.61%; that for `CC(=O)N1CCCC(Cc2cnc(-n3ccnc3)cn2)C1` (stereo unspecified), -5.34%.

Regarding `CC(C)NC(=O)C1(Cc2ccccc2-c2cccs2)CCNC1` (stereo unspecified), the cytotoxicity at 70.5 h is -3.31%.

For the molecule `CC(=O)N1CCC(Cc2cnc(-n3ccnc3)cn2)CC1`, the cytotoxicity at 70.5 h is -6.47%.

In the case of `CNc1cncc(C2CCCN2S(=O)(=O)c2cccc(F)c2)n1` (stereo unspecified), the cytotoxicity at 70.5 h is -2.79%.

`Cc1cccc2nc(C(=O)N3CCCC[C@]4(C)NC(=O)CCC[C@H]34)cn12`: the cytotoxicity at 70.5 h is -5.3%.

For `Cc1ccc2nc(C(=O)N3CCCC[C@]4(C)NC(=O)CCC[C@H]34)cn2c1`, the cytotoxicity at 70.5 h is -4.04%.

With `CN(C(=O)c1ccnn1C)[C@@H]1CCC[C@@H](Oc2ccccc2)[C@@H]1O`, the cytotoxicity at 70.5 h is -3.62%. For the molecule `Cc1ccccc1CC(=O)N[C@@H]1CCC[C@@H](N2CCNC(=O)C2)[C@@H]1O`, the cytotoxicity at 70.5 h is -6.12%. Turning to `CN(C(=O)c1cn(C)cn1)[C@@H]1CCC[C@@H](Oc2ccccc2)[C@@H]1O`, the cytotoxicity at 70.5 h is -2.57%. For `CC(=O)N1CCC(c2cnc(-c3c(C)n[nH]c3C)cn2)CC1`, the cytotoxicity at 70.5 h is -3.69%. On to `CNC(=O)c1cn[nH]c1C1(C)CCCN(Cc2nccn2C(C)C)C1` (stereo unspecified), for which the cytotoxicity at 70.5 h was -2.7%. Consider `NC(=O)CN1CCCC(Cc2ccc(N)nn2)C1` (stereo unspecified), for which the cytotoxicity at 70.5 h amounted to 36.2%. As for `Cn1ccc(C(=O)N2CCOC(c3ccccn3)C2)cc1=O` (stereo unspecified), the cytotoxicity at 70.5 h came to 6.02%. Consider `COc1cccc(-c2ccnc(C3CCNCC3)c2)c1`, for which the cytotoxicity at 70.5 h stood at 7.37%. Regarding `CCc1ccccc1Nc1noc2c1CN(C(=O)CCOC)CC2`, the cytotoxicity at 70.5 h was determined as 18.8%.

For `CCc1ccccc1Nc1noc2c1CN(C(=O)C1CCCO1)CC2` (stereo unspecified), the cytotoxicity at 70.5 h was -3.46%.

On to `COc1cccc(CC(=O)N2CCCC2c2nc(C)c(C)c(O)n2)c1` (stereo unspecified), for which the cytotoxicity at 70.5 h was -2.86%.

Turning to `Cc1ccc(CN(C)C(=O)NCC(C)(C)CCS(C)(=O)=O)s1`, the cytotoxicity at 70.5 h is -1.02%. For `Cc1nc(Cn2cncc(Br)c2=O)no1`, the cytotoxicity at 70.5 h is 6.27%. The result for `O=S(=O)(N1CCCC1)N1CC[C@H](c2ccccc2)[C@H]2NCCCC[C@H]21` reads -2.6%. As for `CCN(CC)S(=O)(=O)N1CC[C@H](c2ccccc2)[C@H]2NCCCC[C@H]21`, the cytotoxicity at 70.5 h was -3.25%.

As for `c1cn(-c2cncc(C3CCNCC3)n2)cn1`, the cytotoxicity at 70.5 h was -6.9%.

As for `COc1ccc(-c2ccnc(C3CCNCC3)c2)cc1`, the cytotoxicity at 70.5 h is -5.12%. The result for `O=C(c1cc2c(s1)CCCC2)N1CCc2nc(C3CCCN3)ncc2C1` (stereo unspecified) reads 6.76%; that for `COc1ccccc1OCCc1cc(C2CCNC2)n[nH]1` (stereo unspecified), -6.36%.
